Among the data in PubChem BioAssay (NCI) are TGI and GI50 values, retold here.

Common to all, as to experiment: NCI-60 cell line screen, 48 h
Experiment [1] deals with COLO 205 colon.
For experiment [2], the system named is HOP-62 NSCLC.
The subject of experiment [3] is NCI/ADR-RES ovarian.
Experiment [4] concerns PC-3 prostate.
Experiment [5] has as its system SK-OV-3 ovarian.
Experiment [6] concerns U251 CNS.
For experiment [7], the system named is UACC-257 melanoma.
For experiment [8], the system named is SN12C renal.
Experiment [9] has as its system NCI-H522 lung.

Several values for one entry are separate records, joined by “and”; a condition that tells them apart may be missing. Equal values may be shown once.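 Values below derive from 48-hour exposures of cells grown in 96-well plates, with endpoints linearly interpolated between the two concentrations bracketing the appropriate inhibition level. The concentration for 50% growth inhibition is given as GI50. At the TGI there is no net growth.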

As to `CSC1(CC(=O)N2CCCCC2)C(=O)Nc2ccccc21` (stereo not drawn), the TGI in [1], in experiment [2], in experiment [3], in experiment [4], in [5] and in experiment [6] was > 100 µM in each case. Further, the TGI in experiment [7] is > 100 µM.

With `COc1ccc(C2C3=C(COC3=O)Oc3cc4c(cc32)OCO4)cc1` (stereo not drawn), the TGI was 63.6 µM in experiment [1]; 51.7 µM in experiment [2]; > 100 µM in experiment [5]; > 100 µM in experiment [8]; > 100 µM in experiment [6]; > 100 µM in experiment [7].

As for `Cc1nn(C)c2cc(N(C)c3ccnc(Nc4cccc(S(N)(=O)=O)c4)n3)ccc12`, the GI50 in experiment [1] was > 17.3 µM; in experiment [2], > 15 µM; in experiment [9] it was 3.46 µM; in [3] it was 7.85 µM; in [4], 7.17 µM; in experiment [5], > 11.8 µM. The GI50 in experiment [8] was 6.59 µM; in experiment [6] it was 10.8 µM; in experiment [7], 6.54 µM. Also, the TGI is > 25 µM in experiment [1]; > 25 µM in experiment [2]; 19.2 µM in experiment [9]; > 25 µM in experiment [3]; > 25 µM in [4]; > 25 µM in [5]. For the same molecule, the TGI in experiment [8], in experiment [6] and in experiment [7] was > 25 µM each time.

For `N#CSc1ccc(S(N)(=O)=O)cc1`, the TGI in experiment [1] was > 100 µM; in experiment [2], > 100 µM; in experiment [9], 26.5 µM; in experiment [3], > 100 µM; in [4] it was > 100 µM; in experiment [5] it was > 100 µM. For the same molecule, the TGI in experiment [8] was > 100 µM; in experiment [6] it was 38.1 µM; in experiment [7], > 100 µM.

`CCOC(=O)C(C(=O)OCC)=c1sc(=C(C(=O)OCC)C(=O)OCC)s1`: the TGI in experiment [1], in experiment [2], in experiment [9], in experiment [5], in experiment [8] and in experiment [7] was > 100 µM in each case.

For `COC(C)(C)[C@H](O)C(O)CC(C)[C@@H]1CCC23CC12CCC1[C@@]2(C)CCC(OC(C)=O)C(C)(C)C2CC(OC2OC(COC(C)=O)C(O)C(O)C2O)[C@]13C` (stereo partly drawn), the GI50 in experiment [1] was 2.17 µM; in [9], 3.85 µM; in experiment [5] it was 7.76 µM; in experiment [8], 6.29 µM; in experiment [6], 5.3 µM; in experiment [7], 11.5 µM. The TGI in experiment [1] is 11.3 µM and 4.58 µM; in [2], 17.2 µM and 23.9 µM; in experiment [9], 6.72 µM and 17.7 µM; in experiment [5] it was 17.7 µM and 20.4 µM; in experiment [8] it was 10.6 µM and 19.4 µM; in experiment [6] it was 9.64 µM and 17.7 µM. Also, the TGI in experiment [7] is 11.7 µM and 26 µM.

As to `Cn1nc2ccccc2cc1=O`, the TGI in experiment [1], in experiment [2], in [5], in experiment [8], in experiment [6] and in experiment [7] was > 100 µM throughout.

In the case of `CC1=CC(=O)c2ccc(C)cc2C1=O`, the TGI in experiment [1] was 31.1 µM; in [2] it was 32 µM; in experiment [9] it was 18.5 µM; in experiment [3] it was > 100 µM; in experiment [4], 44.1 µM; in experiment [5], 30.5 µM. Moreover, the figures for the TGI in experiment [8], in [6] and in [7] were 36.6 µM, 25.7 µM and 26.6 µM, respectively.

For the molecule `COc1cc2c3c(n(CCCN4CCCC(O)C4)c(=O)c2cc1OC)-c1cc2c(cc1C3=O)OCO2` (stereo not drawn), the GI50 was 2.51 µM in experiment [1]; 0.0194 µM in [2]; 2.34 µM in experiment [9]; 0.0503 µM in experiment [3]; 0.0879 µM in experiment [4]; 3.8 µM in experiment [5]. Moreover, the GI50 is 0.162 µM in experiment [8], 0.00633 µM in [6] and 7.74 µM in experiment [7]. The TGI in experiment [1] came to 6.33 µM; in [2], 0.0746 µM; in experiment [9], 8.91 µM; in experiment [3] it was 1.06 µM; in [4], 1.15 µM; in experiment [5], 27.2 µM. Besides, the TGI in [8] was found to be 0.964 µM; in experiment [6], 0.854 µM; in experiment [7], 15.1 µM.

For `Cc1ccc(NC(=O)c2cc3ccccc3cc2O)c(C)c1.Cc1ccc(NC(=O)c2cc3ccccc3cc2[O-])c(C)c1.[Ni+2]`, the GI50 is 6.65 µM in [1]; 3.87 µM in [2]; 3.08 µM in [9]; 2.45 µM in [3]; 2.9 µM in [5]; 3.12 µM in [8]. The GI50 is 2.91 µM in experiment [6] and 2.94 µM in experiment [7]. Also, the TGI stood at 24.6 µM in [1]; 17 µM in experiment [2]; 10.5 µM in experiment [9]; 8.6 µM in [3]; 5.38 µM in [4]; 11.6 µM in [5]. The TGI in experiment [8] worked out at 15.1 µM; in experiment [6] it was 8.62 µM; in [7] it was 7.85 µM.

Take `O=C(O)[C@@H](NS(=O)(=O)c1ccc([N+](=O)[O-])cc1)c1ccccc1`: the TGI in experiment [1], in experiment [9], in experiment [5], in experiment [8], in experiment [6] and in experiment [7] was > 100 µM throughout.

For the molecule `CC(=O)[O][Bi]([c]1ccccc1)[c]1ccccc1`, the GI50 was 2.84 µM in experiment [1]; 17 µM in [2]; 1.56 µM in experiment [9]; 19.1 µM in [3]; 16.1 µM in experiment [4]; 16.6 µM in experiment [5]. In addition, the GI50 in experiment [8] was 10.9 µM; in [6] it was 2.6 µM; in experiment [7], 11.2 µM. The TGI in experiment [1] came out at 7.27 µM; in [2], 33.8 µM; in [9], 3.11 µM; in experiment [3], 37.5 µM; in experiment [4] it was 30.7 µM; in experiment [5], 30.5 µM. Also, the TGI was 23.6 µM in experiment [8], 10.9 µM in experiment [6] and 23.6 µM in [7].
